Data from patent US6534491B2, “Preparation and use of ortho-sulfonamido bicyclic heteroaryl hydroxamic acids as matrix metalloproteinase and tace inhibitors” (priority 1996, dated 2003).
Structures can show the parent of a compound that is named as a salt. Where two headings read alike, the source gives them in different places.

Columns and labels:
MMP-1 = target: T1, MMP-1 (Homo sapiens, UniProt P03956); test: biochemical; conditions: for IC50: MMP-1 IC50
T1 sequence (P03956 100-469): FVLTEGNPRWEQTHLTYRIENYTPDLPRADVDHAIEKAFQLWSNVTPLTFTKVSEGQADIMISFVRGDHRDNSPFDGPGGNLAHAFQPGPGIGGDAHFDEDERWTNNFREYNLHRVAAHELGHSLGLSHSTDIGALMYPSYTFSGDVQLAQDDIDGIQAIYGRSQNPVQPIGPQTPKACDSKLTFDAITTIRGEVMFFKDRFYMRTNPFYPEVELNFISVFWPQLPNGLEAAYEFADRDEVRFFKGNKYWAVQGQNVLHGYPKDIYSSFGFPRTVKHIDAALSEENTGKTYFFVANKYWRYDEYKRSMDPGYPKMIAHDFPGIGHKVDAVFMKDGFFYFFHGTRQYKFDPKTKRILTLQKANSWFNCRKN

TACE = TACE (Homo sapiens, UniProt P78536); test: TACE inhibition (fluorescent peptidyl substrate); format: biochemical; conditions: for inhibition at 1 µM: read-out: TACE % inhibition
Sequence of TACE (P78536 215-824): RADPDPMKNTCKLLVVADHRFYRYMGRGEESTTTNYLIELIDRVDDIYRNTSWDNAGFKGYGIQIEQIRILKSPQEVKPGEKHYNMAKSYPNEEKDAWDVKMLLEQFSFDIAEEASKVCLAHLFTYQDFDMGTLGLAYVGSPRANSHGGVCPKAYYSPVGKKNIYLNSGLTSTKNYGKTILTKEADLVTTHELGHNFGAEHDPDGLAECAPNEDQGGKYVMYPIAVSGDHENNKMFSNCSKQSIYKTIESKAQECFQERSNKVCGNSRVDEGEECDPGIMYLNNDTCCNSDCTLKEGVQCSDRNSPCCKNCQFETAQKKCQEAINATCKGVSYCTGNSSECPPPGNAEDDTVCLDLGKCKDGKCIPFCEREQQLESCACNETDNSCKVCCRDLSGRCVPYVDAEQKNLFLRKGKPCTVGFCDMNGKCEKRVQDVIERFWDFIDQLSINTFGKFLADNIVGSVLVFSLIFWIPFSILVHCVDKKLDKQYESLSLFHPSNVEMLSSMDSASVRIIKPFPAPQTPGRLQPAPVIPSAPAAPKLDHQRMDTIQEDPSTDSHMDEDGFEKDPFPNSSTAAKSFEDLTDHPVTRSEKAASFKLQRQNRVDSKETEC
Method: Using 96-well black microtiter plates, each well receives a solution composed of 10 μL TACE (final concentration 1 μg/mL), 70 μL Tris buffer, pH 7.4 containing 10% glycerol (final concentration 10 mM), and 10 μL of test compound solution in DMSO (final concentration 1 μl M, DMSO concentration <1%) and incubated for 10 minutes at room temperature.
The reaction is read (excitation 340 nm, emission 420 nm) for 10 min. and the increase in fluorescence over time is plotted as a linear line. The slope of the line is calculated and represents the reaction rate.
The linearity of the reaction rate is confirmed (r^2>0.85). The mean (x±sem) of the control rate is calculated and compared for statistical significance (p<0.05) with drug-treated rates using Dunnett's multiple comparison test.

MMP-9 = MMP-9 (Homo sapiens, UniProt P14780); test: MMP-9 inhibition (thiopeptide or fluorescent peptide substrate); format: biochemical
Sequence of MMP-9 (P14780 94-707): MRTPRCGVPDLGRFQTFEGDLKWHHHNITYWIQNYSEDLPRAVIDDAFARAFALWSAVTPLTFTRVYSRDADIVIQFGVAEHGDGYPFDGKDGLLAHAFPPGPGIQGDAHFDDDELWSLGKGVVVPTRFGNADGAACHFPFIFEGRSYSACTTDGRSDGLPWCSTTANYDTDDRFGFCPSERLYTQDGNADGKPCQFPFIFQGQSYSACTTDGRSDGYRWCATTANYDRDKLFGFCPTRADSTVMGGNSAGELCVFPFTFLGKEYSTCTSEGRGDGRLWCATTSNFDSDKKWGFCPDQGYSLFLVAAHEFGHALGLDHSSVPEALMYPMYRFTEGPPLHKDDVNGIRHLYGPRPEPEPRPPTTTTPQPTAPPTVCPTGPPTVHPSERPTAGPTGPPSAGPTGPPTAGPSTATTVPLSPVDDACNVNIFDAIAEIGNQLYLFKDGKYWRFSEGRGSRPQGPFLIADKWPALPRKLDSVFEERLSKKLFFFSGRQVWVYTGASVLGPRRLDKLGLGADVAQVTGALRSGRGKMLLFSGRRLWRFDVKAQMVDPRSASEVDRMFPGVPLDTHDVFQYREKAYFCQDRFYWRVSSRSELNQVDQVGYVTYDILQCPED
Method: (§1) The enzyme activity is measured by the rate of the color increase. The thiopeptide substrate is made up fresh as a 20 mM stock in 100% DMSO and the DTNB is dissolved in 100% DMSO as a 100 mM stock and stored in the dark at room temperature. Both the substrate and DTNB are diluted together to 1 mM with substrate buffer (50 mM HEPES pH 7.5, 5 mM CaCl2) before use. The stock of enzyme is diluted with buffer (50 mM HEPES, pH 7.5, 5 mM CaCl2, 0.02% Brij) to the desired final concentration.
(§2) Alternatively, a fluorescent peptide substrate is used. In this test procedure, the peptide substrate contains a fluorescent group and a quenching group. Upon cleavage of the substrate by an MMP, the fluorescence that is generated is quantitated on the fluorescence plate reader. The assay is run in HCBC assay buffer (50 mM HEPES, pH 7.0, 5 mM Ca^+2, 0.02% Brij, 0.5% Cysteine), with human recombinant MMP-1, MMP-9, or MMP-13. The substrate is dissolved in methanol and stored frozen in 1 mM aliquots. For the assay, substrate and enzymes are diluted in HCBC buffer to the desired concentrations. Compounds are added to the 96 well plate containing enzyme and the reaction is started by the addition of substrate.
(§3) For either the thiopeptide or fluorescent peptide test procedures, the slope of the line is calculated and represents the reaction rate. The linearity of the reaction rate is confirmed (r^2>0.85). The mean (x±sem) of the control rate is calculated and compared for statistical significance (p<0.05) with drug-treated rates using Dunnett's multiple comparison test.

MMP-13 = MMP-13 (Homo sapiens, UniProt P45452); test: MMP-13 inhibition (thiopeptide or fluorescent peptide substrate); format: biochemical
Method: as §1, §2, §3

Question: For `COc1ccc(S(=O)(=O)N(Cc2cccnc2)c2c(C(=O)NO)cnc3c2c(C)nn3-c2ccccc2)cc1` [Example 67, 4-[(4-Methoxybenzenesulfonyl)pyridin-3-ylmethylamino]-1phenyl-3-methyl-1H-pyrazolo[3,4-b]pyridine-5-carboxylic acid, hydroxyamide], which IC50 (MMP-1) is on record?
Answer: 0.096 µM

Question: Which inhibition at 1 µM (TACE) does the source give for `Cc1nn(C)c2ncc(C(=O)NO)c(N(C)S(=O)(=O)c3ccc(Oc4ccncc4)cc3)c12` [91(HC1), 4-{Methyl-[4-(4-pyridinyloxy)benzenesulfonyl]amino}-1,3-dimethyl-1H-pyrazolo[3,4-b]pyridine-5-carboxylic Acid, Hydroxyamide] here?
Answer: 38.7%

Question: And the IC50 (MMP-9; MMP-9 IC50)?
Answer: 0.0018 µM

Question: With `COc1ccc(S(=O)(=O)N(C)c2c(C(=O)NO)cnc3c(Br)cccc23)cc1` [Example 31, 4-[Methyl-(4-methoxy-benzenesulfonyl)-amino]-8-bromo-quinoline-3-carboxylic acid hydroxyamide] as the compound, how does the IC50 (MMP-13) read?
Answer: 0.002 µM

Question: What about the IC50 (TACE) of the same compound?
Answer: 0.08 µM

Question: What about the IC50 (MMP-1) of the same compound?
Answer: 0.225 µM

Question: What does the source list for `COc1ccc(S(=O)(=O)N(Cc2cccnc2)c2c(C(=O)NO)cnc3c2cnn3-c2ccccc2)cc1` [Example 63, 4-[(4-Methoxybenzenesulfonyl)pyridin-3-ylmethylamino]-1-phenyl-1H-pyrazolo[3,4-b]pyridine-5-carboxylic acid, hydroxyamide]?
Answer: IC50 (MMP-13): 0.023 µM; IC50 (MMP-9; read-out: MMP-9 IC50): 0.0068 µM; IC50 (MMP-1): 0.721 µM

Question: What does the source list for `COc1ccc(S(=O)(=O)N(Cc2ccccc2)c2c(C(=O)NO)cnc3c(C)cccc23)cc1` [Example 18, 4-[Benzyl-(4-methoxybenzenesulfonyl)-amino]-8-methyl-quinoline-3-carboxylic acid hydroxyamide]?
Answer: IC50 (MMP-13): 0.026 µM; IC50 (TACE): 0.627 µM

Question: With `COc1ccc(S(=O)(=O)N(Cc2ccccc2)c2c(C(=O)NO)cnc3cc(Br)ccc23)cc1` [Example 14, 4-[Benzyl-(4-methoxy-benzenesulfonyl)-amino]-7-bromo-quinoline-3-carboxylic acid hydroxyamide] as the compound, how does the IC50 (MMP-13) read?
Answer: 0.006 µM

Question: And the inhibition at 1 µM (TACE; at 1 μM concentration)?
Answer: 24%

Question: And the IC50 (MMP-9; read-out: MMP-9 IC50)?
Answer: 0.008 µM

Question: `COc1ccc(S(=O)(=O)N(Cc2cccnc2)c2c(C(=O)NO)cnc3cc(C)nn23)cc1` [Example 88, 7-[(4-Methoxybenzenesulfonyl)pyridin-3-ylmethylamino]-2-methylpyrazolo[1,5-a]pyrimidine-6-carboxylic Acid, Hydroxyamide] was tested. Which IC50 (MMP-13) did it give?
Answer: 0.0187 µM

Question: And the inhibition at 1 µM (TACE; at 1 μM concentration)?
Answer: 40.5%

Question: And the IC50 (MMP-9; read-out: MMP-9 IC50)?
Answer: 0.0104 µM

Question: What about the IC50 (MMP-1) of the same compound?
Answer: 0.643 µM

Question: How did the IC50 (MMP-13) turn out when `COc1ccc(S(=O)(=O)N(Cc2cccnc2)c2c(C(=O)NO)cnc3c(Br)cccc23)cc1` [Example 37, 4-[(4-Methoxy-benzenesulfonyl)-pyridin-3-ylmethyl-amino]-8-bromo-quinoline-3-carboxylic acid hydroxyamide] was run?
Answer: 0.001 µM

Question: What about the IC50 (TACE) of the same compound?
Answer: 0.124 µM

Question: What about the IC50 (MMP-9; read-out: MMP-9 IC50) of the same compound?
Answer: 0.002 µM

Question: What about the IC50 (MMP-1) of the same compound?
Answer: 0.065 µM

Question: With `COc1ccc(S(=O)(=O)N(Cc2ccccc2)c2c(C(=O)NO)cnc3c(C(C)C)cccc23)cc1` [Example 20, 4-[Benzyl-(4-methoxybenzenesulfonyl)-amino]-8-(1-methylethyl)-quinoline-3-carboxylic acid hydroxyamide] as the compound, how does the IC50 (MMP-13) read?
Answer: 0.009 µM

Question: And the IC50 (TACE)?
Answer: 0.589 µM

Question: And the IC50 (MMP-9; read-out: MMP-9 IC50)?
Answer: 0.006 µM

Question: What about the IC50 (MMP-1) of the same compound?
Answer: 0.344 µM

Question: Which IC50 (MMP-9; read-out: MMP-9 IC50) does the source give for `COc1ccc(S(=O)(=O)N(Cc2cccnc2)c2c(C(=O)NO)cnc3snc(C)c23)cc1` [Example 86, 4-[(4-Methoxybenzenesulfonyl)pyridin-3-ylmethylamino]-3-methylisothiazolo[5,4-b]pyridine-5-carboxylic Acid, Hydroxyamide] here?
Answer: 0.0069 µM

Question: And the IC50 (MMP-1)?
Answer: 0.131 µM

Question: Which IC50 (MMP-13) does the source give for `COc1ccc(S(=O)(=O)N(Cc2cccnc2)c2c(C(=O)NO)cnc3c(Cc4ccccc4)cccc23)cc1` [Example 38, 4-[(4-methoxy-benzenesulfonyl)-pyridin-3-ylmethylamino]-8-Benzyl-quinoline-3-carboxylic acid hydroxyamide] here?
Answer: 0.003 µM

Question: And the IC50 (TACE)?
Answer: 0.336 µM

Question: And the IC50 (MMP-9; read-out: MMP-9 IC50)?
Answer: 0.004 µM

Question: And the IC50 (MMP-1)?
Answer: 0.1 µM

Question: Which IC50 (MMP-13) does the source give for `CCN(c1c(C(=O)NO)cnc2ccc(C#Cc3ccccc3)cc12)S(=O)(=O)c1ccc(OC)cc1` [Example 34, 4-[Ethyl-(4-methoxy-benzenesulfonyl)-amino]-6-phenylethynyl-quinoline-3-carboxylic acid hydroxyamide] here?
Answer: 0.012 µM

Question: And the IC50 (TACE)?
Answer: 0.02 µM

Question: What about the IC50 (MMP-9; read-out: MMP-9 IC50) of the same compound?
Answer: 0.009 µM

Question: And the IC50 (MMP-1)?
Answer: 0.301 µM

Question: Which IC50 (MMP-13) does the source give for `COc1ccc(S(=O)(=O)N(Cc2ccccc2)c2c(C(=O)NO)cnc3c2cnn3-c2ccccc2)cc1` [Example 62, 4-[Benzyl-(4-methoxybenzenesulfonyl)amino]-1-phenyl-1H-pyrazolo[3,4-b]pyridine-5-carboxylic acid, hydroxyamide] here?
Answer: 0.023 µM

Question: And the inhibition at 1 µM (TACE; at 1 μM concentration)?
Answer: 46%

Question: And the IC50 (MMP-9; read-out: MMP-9 IC50)?
Answer: 0.0057 µM

Question: What about the IC50 (MMP-1) of the same compound?
Answer: 1.24 µM

Question: Which results are given for `CN(c1c(C(=O)NO)cnc2ccc(I)cc12)S(=O)(=O)c1ccc(Oc2ccncc2)cc1` [Example 32, 4-{Methyl-[4-(pyridin-4-yloxy)-benzenesulfonyl]-amino}-6-iodo-quinoline-3-carboxylic acid hydroxyamide]?
Answer: IC50 (MMP-13): 0.001 µM; IC50 (TACE): 0.024 µM; IC50 (MMP-9; read-out: MMP-9 IC50): 0.001 µM; IC50 (MMP-1): 0.456 µM

Question: For `COc1ccc(S(=O)(=O)N(Cc2ccccc2)c2c(C(=O)NO)cnc3ccc(Br)cc23)cc1` [Example 13, 4-[Benzyl-(4-methoxy-benzenesulfonyl)-amino]-6-bromo-quinoline-3-carboxylic acid hydroxyamide], which IC50 (MMP-13) is on record?
Answer: 0.009 µM

Question: What about the inhibition at 1 µM (TACE; at 1 μM concentration) of the same compound?
Answer: 3%

Question: What about the IC50 (MMP-9; read-out: MMP-9 IC50) of the same compound?
Answer: 0.015 µM

Question: And the IC50 (MMP-1)?
Answer: 0.082 µM

Question: With `COc1ccc(S(=O)(=O)N(Cc2cccnc2)c2c(C(=O)NO)cnc3c(-c4ccccc4)cccc23)cc1` [Example 40, 4-[(4-Methoxy-benzenesulfonyl)-pyridin-3-ylmethyl-amino]-8-phenyl-quinoline-3-carboxylic acid hydroxyamide] as the compound, how does the IC50 (MMP-13) read?
Answer: 0.004 µM

Question: And the IC50 (TACE)?
Answer: 0.12 µM

Question: What about the IC50 (MMP-9; read-out: MMP-9 IC50) of the same compound?
Answer: 0.003 µM

Question: And the IC50 (MMP-1)?
Answer: 0.151 µM

Question: What does the source list for `COc1ccc(S(=O)(=O)N(Cc2ccccc2)c2c(C(=O)NO)cnc3ccc([N+](=O)[O-])cc23)cc1` [Example 30, 4-[Benzyl-(4-methoxy-benzenesulfonyl)-amino]-6-nitro-quinoline-3-carboxylic acid hydroxyamide]?
Answer: IC50 (MMP-13): 0.467 µM; IC50 (TACE): 0.047 µM; IC50 (MMP-9; read-out: MMP-9 IC50): 0.011 µM; IC50 (MMP-1): 0.022 µM

Question: For `COc1ccc(S(=O)(=O)N(Cc2cccnc2)c2c(C(=O)NO)cnc3c2cnn3-c2ccccc2)cc1` [Example 64, 4-[(4-Methoxybenzenesulfonyl)pyridin-3-ylmethylamino]-1-phenyl-1H-pyrazolo[3,4-b]pyridine-5-carboxylic acid, hydroxyamide, hydrochloride], which IC50 (MMP-13) is on record?
Answer: 0.019 µM

Question: What about the IC50 (MMP-9; read-out: MMP-9 IC50) of the same compound?
Answer: 0.0055 µM

Question: And the IC50 (MMP-1)?
Answer: 0.913 µM

Question: Which inhibition at 1 µM (MMP-13; read-out: MMP-13 % inhibition, at 1 μM concentration) does the source give for `Cc1ccc(S(=O)(=O)N(Cc2cccnc2)c2c(C(=O)NO)cnc3cc(C(F)(F)F)ccc23)cc1` [Example 44, 4-[Pyridin-3-ylmethyl-(toluene-4-sulfonyl)-amino]-7-trifluoromethyl-quinoline-3-carboxylic acid hydroxyamide] here?
Answer: 73%

Question: What about the inhibition at 1 µM (TACE; at 1 μM concentration) of the same compound?
Answer: 5%

Question: What about the inhibition at 1 µM (MMP-9; read-out: MMP-9 % inhibition, at 1 μM concentration) of the same compound?
Answer: 59%

Question: And the inhibition at 1 µM (MMP-1; read-out: MMP-1 % inhibition)?
Answer: 65%

Question: With `CCc1cccc2c(N(Cc3ccccc3)S(=O)(=O)c3ccc(OC)cc3)c(C(=O)NO)cnc12` [Example 19, 4-[Benzyl-(4-methoxybenzenesulfonyl)-amino]-8-ethyl-quinoline-3-carboxylic acid hydroxyamide] as the compound, how does the IC50 (MMP-13) read?
Answer: 0.004 µM

Question: And the IC50 (TACE)?
Answer: 0.314 µM

Question: What about the IC50 (MMP-9; read-out: MMP-9 IC50) of the same compound?
Answer: 0.002 µM

Question: Which IC50 (MMP-13) does the source give for `COc1ccc(S(=O)(=O)N(Cc2cccnc2)c2c(C(=O)NO)cnc3c(I)cccc23)cc1` [Example 39, 4-[(4-Methoxy-benzenesulfonyl)-pyridin-3-ylmethyl-amino]-8-iodo-quinoline-3-carboxylic acid hydroxyamide] here?
Answer: 0.002 µM

Question: And the IC50 (TACE)?
Answer: 0.053 µM

Question: And the IC50 (MMP-9; read-out: MMP-9 IC50)?
Answer: 0.002 µM

Question: With `O=C(NO)c1cnc2cc(C(F)(F)F)ccc2c1N(Cc1cccnc1)S(=O)(=O)c1ccc(-c2ccccc2)cc1` [Example 42, 4-[(Biphenyl-4-sulfonyl)-pyridin-3-ylmethyl-amino]-7-trifluoromethyl-quinoline-3-carboxylic acid hydroxyamide] as the compound, how does the IC50 (MMP-9; read-out: MMP-9 IC50) read?
Answer: 0.874 µM

Question: And the IC50 (MMP-1)?
Answer: 5.2 µM

Question: `COc1ccc(S(=O)(=O)N(Cc2ccccc2)c2c(C(=O)NO)cnc3ccc(C(F)(F)F)cc23)cc1` [Example 15, 4-[Benzyl-(4-methoxy-benzenesulfonyl)-amino]-6-trifluoromethyl-quinoline-3-carboxylic acid hydroxyamide] was tested. Which IC50 (MMP-13) did it give?
Answer: 0.012 µM

Question: And the inhibition at 1 µM (TACE; at 1 μM concentration)?
Answer: 7%

Question: And the IC50 (MMP-9; read-out: MMP-9 IC50)?
Answer: 0.025 µM

Question: What does the source list for `C=Cc1cccc2c(N(CC)S(=O)(=O)c3ccc(OC)cc3)c(C(=O)NO)cnc12` [Example 29, 4-[Ethyl-(4-methoxy-benzenesulfonyl)-amino]-8-vinyl-quinoline-3-carboxylic acid hydroxyamide]?
Answer: IC50 (MMP-13): 0.004 µM; IC50 (MMP-9; read-out: MMP-9 IC50): 0.005 µM; IC50 (MMP-1): 0.2 µM

Question: How did the IC50 (MMP-13) turn out when `COc1ccc(S(=O)(=O)N(Cc2ccccc2)c2c(C(=O)NO)cnc3cc(C(F)(F)F)ccc23)cc1` [Example 11, 4-[Benzyl-(4-methoxy-benzenesulfonyl)-amino]-7-trifluoromethyl-quinoline-3-carboxylic acid hydroxyamide] was run?
Answer: 0.007 µM

Question: And the IC50 (TACE)?
Answer: > 1 µM

Question: And the IC50 (MMP-9; read-out: MMP-9 IC50)?
Answer: 0.011 µM
